Reference: patent US20250361230A1, “LATS Inhibitors and Uses Thereof” (The USA, as Represented by the Secretary, Dept. of Heath …, priority 2022, published 2025)

Assays:
Assay type in all cases: biochemical
[1] = target: T1, LATS1 (Homo sapiens, UniProt O95835); test: RBC HotSpot kinase assay (33P-ATP, P81 filter-binding), LATS1; conditions: biochemical kinase inhibition; read-out: LATS1 IC50
T1 sequence (O95835 1-1130): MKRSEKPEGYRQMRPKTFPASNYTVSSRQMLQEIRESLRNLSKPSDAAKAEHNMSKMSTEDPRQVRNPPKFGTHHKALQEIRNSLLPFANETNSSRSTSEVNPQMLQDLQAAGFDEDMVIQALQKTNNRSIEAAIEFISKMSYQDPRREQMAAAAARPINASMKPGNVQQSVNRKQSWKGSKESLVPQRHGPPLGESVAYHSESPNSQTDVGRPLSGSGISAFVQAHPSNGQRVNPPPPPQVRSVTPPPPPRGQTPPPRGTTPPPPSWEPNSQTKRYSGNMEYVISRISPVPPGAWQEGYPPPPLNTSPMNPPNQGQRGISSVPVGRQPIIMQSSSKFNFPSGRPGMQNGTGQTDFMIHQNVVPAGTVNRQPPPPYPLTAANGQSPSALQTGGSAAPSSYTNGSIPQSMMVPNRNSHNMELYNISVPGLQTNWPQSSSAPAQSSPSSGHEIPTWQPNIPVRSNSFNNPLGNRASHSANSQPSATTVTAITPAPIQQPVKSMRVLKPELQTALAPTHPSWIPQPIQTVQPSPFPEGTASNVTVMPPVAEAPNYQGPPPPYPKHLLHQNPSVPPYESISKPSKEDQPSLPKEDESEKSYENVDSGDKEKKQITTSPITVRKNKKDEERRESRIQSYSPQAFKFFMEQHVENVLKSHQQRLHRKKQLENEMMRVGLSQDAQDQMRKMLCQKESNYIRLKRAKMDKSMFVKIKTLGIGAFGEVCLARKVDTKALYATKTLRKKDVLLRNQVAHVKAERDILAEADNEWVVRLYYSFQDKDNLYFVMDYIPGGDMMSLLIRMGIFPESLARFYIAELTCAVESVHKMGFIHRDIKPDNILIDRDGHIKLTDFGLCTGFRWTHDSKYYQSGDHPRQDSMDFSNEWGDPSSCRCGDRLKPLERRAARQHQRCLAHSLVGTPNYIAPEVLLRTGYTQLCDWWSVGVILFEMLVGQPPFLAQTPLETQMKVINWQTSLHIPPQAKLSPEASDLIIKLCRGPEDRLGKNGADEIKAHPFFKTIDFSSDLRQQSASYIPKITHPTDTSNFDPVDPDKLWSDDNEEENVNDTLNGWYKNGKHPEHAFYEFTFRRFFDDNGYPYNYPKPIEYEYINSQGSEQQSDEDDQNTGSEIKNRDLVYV
Procedure, shortened: (§1)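 Substrate in fresh buffer receives cofactors, then kinase, then compound in DMSO for a 20 min room-temperature preincubation. Reactions start with 33P-ATP and run 2 h; phosphorylation is read by P81 filter binding, and IC50 comes from a 10-point curve.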

[2] = target: T2, LATS2 (Homo sapiens, UniProt Q9NRM7); test: RBC HotSpot kinase assay (33P-ATP, P81 filter-binding), LATS2; conditions: biochemical kinase inhibition; read-out: LATS2 IC50
T2 sequence (Q9NRM7 1-1088): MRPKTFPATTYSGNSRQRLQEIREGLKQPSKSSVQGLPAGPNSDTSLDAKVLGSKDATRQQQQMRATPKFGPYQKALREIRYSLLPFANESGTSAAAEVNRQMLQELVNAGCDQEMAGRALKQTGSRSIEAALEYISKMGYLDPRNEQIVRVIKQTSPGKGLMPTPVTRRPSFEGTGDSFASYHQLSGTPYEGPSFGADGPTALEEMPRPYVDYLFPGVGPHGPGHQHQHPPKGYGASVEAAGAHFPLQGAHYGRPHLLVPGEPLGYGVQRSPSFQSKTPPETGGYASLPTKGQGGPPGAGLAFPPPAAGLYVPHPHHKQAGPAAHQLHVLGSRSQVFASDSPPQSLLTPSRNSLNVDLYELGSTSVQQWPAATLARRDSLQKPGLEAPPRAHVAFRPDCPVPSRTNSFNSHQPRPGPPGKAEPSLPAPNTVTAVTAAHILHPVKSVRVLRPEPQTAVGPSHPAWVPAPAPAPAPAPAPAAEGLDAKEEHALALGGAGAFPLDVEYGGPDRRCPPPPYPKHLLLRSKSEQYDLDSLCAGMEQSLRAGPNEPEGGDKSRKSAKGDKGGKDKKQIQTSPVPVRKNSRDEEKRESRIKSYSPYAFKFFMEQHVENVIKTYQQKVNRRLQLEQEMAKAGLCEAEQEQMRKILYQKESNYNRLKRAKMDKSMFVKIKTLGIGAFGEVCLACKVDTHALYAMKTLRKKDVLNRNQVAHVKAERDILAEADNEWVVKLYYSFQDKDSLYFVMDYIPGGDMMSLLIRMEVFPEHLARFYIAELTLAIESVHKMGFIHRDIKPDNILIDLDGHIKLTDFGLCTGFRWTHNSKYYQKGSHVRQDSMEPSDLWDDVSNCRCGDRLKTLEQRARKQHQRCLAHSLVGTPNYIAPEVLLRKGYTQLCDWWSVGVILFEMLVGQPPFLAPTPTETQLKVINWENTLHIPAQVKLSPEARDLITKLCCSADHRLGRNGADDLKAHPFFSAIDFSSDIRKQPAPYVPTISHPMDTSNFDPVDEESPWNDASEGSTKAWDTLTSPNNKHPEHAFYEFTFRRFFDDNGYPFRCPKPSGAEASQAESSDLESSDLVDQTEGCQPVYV
Procedure, shortened: as §1

[3] = target: AKT (Homo sapiens, UniProt P31749); test: RBC HotSpot kinase assay (33P-ATP, P81 filter-binding), AKT; conditions: biochemical kinase inhibition; read-out: AKT IC50
Chain of AKT (P31749 whole entry): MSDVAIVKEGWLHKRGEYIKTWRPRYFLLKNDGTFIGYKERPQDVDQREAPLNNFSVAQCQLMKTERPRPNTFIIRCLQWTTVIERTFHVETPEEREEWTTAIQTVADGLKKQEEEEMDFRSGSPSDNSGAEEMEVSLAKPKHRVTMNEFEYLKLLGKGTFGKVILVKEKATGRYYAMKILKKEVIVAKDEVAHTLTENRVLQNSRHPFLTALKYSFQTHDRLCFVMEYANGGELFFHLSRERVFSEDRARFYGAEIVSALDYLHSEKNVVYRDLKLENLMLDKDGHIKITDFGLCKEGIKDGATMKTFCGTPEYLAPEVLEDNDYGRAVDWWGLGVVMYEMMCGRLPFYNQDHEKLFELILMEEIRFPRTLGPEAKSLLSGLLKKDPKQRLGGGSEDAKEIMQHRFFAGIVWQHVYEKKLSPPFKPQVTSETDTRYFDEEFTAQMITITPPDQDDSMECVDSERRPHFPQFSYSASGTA
Procedure, shortened: as §1

IC50 [1] | IC50 [2] | IC50 [3] | SMILES
4.8 nM | 2.5 nM | 244 nM | CN[C@@H](CO)C(=O)N1C[C@@H](C)[C@](O)(c2c(C)cc(-c3ccnc4[nH]cc(C#N)c34)cc2F)[C@@H](C)C1 [Compound 2009, 4-(3-fluoro-4-((3S,4R,5R)-4-hydroxy-3,5-dimethyl-1-(methyl-L-seryl)piperidin-4-yl)-5-methylphenyl)-1H-pyrrolo[2,3-b]pyridine-3-carbonitrile]
13.4 nM | 8.5 nM | 89.4 nM | Cc1cc(-c2ccnc3[nH]cc(C#N)c23)ccc1[C@@]1(O)[C@H](C)CN(C(=O)[C@@H](C)N)C[C@@H]1C [Compound 2010, 4-(4-((3S,4S,5R)-1-(D-alanyl)-4-hydroxy-3,5-dimethylpiperidin-4-yl)-3-methylphenyl)-1H-pyrrolo[2,3-b]pyridine-3-carbonitrile]
5.7 nM | 2.9 nM | 330 nM | Cc1cc(-c2ccnc3[nH]cc(C#N)c23)cc(F)c1[C@@]1(O)[C@H](C)CN(C(=O)[C@@H]2CCCN2)C[C@@H]1C [Compound 2013, 4-(4-((3S,4S,5R)-1-(L-prolyl)-4-hydroxy-3,5-dimethylpiperidin-4-yl)-3-fluoro-5-methylphenyl)-1H-pyrrolo[2,3-b]pyridine-3-carbonitrile]
9.2 nM | 6.4 nM | 48.8 nM | Cc1cc(-c2ccnc3[nH]cc(C#N)c23)ccc1[C@@]1(O)[C@H](C)CN(C(=O)[C@H](N)CO)C[C@@H]1C [Compound 2016, 4-(4-((3S,4S,5R)-1-(D-seryl)-4-hydroxy-3,5-dimethylpiperidin-4-yl)-3-methylphenyl)-1H-pyrrolo[2,3-b]pyridine-3-carbonitrile]
11.1 nM | 7.2 nM | 610 nM | Cc1cc(-c2ccnc3[nH]cc(C#N)c23)cc(F)c1[C@@]1(O)[C@H](C)CN(C(=O)C(C)(C)N)C[C@@H]1C [Compound 2018, 4-(4-((3S,4s,5R)-1-(2-amino-2-methylpropanoyl)-4-hydroxy-3,5-dimethylpiperidin-4-yl)-3-fluoro-5-methylphenyl)-1H-pyrrolo[2,3-b]pyridine-3-carbonitrile]
7 nM | 7 nM | 1220 nM | Cc1cc(-c2ccnc3[nH]cc(C#N)c23)cc(F)c1[C@@]1(O)[C@H](C)CN(C(=O)C(N)C(F)F)C[C@@H]1C (stereo partly drawn) [Compound 2019, 4-(4-((3S,4s,5R)-1-(2-amino-3,3-difluoropropanoyl)-4-hydroxy-3,5-dimethylpiperidin-4-yl)-3-fluoro-5-methylphenyl)-1H-pyrrolo[2,3-b]pyridine-3-carbonitrile]
5.1 nM | 3.4 nM | 223 nM | Cc1cc(-c2ccnc3[nH]cc(C#N)c23)cc(F)c1[C@@]1(O)[C@H](C)CN(C(=O)[C@@H](CO)N(C)C)C[C@@H]1C [Compound 2021, 4-(4-((3S,4S,5R)-1-(dimethyl-D-seryl)-4-hydroxy-3,5-dimethylpiperidin-4-yl)-3-fluoro-5-methylphenyl)-1H-pyrrolo[2,3-b]pyridine-3-carbonitrile]
5.3 nM | 3 nM | 251 nM | Cc1cc(-c2ccnc3[nH]cc(C#N)c23)ccc1[C@@]1(O)[C@H](C)CN(C(=O)[C@@H](CO)N(C)C)C[C@@H]1C [Compound 2022, 4-(4-((3S,4S,5R)-1-(dimethyl-D-seryl)-4-hydroxy-3,5-dimethylpiperidin-4-yl)-3-methylphenyl)-1H-pyrrolo[2,3-b]pyridine-3-carbonitrile]
